# Where “and” joins values, the source holds several entries; their conditions need not be identical. Identical values can stand only once.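 All cell lines were grown in 96-well plates and treated with compound for 48 hours. The concentration for 50% growth inhibition is given as GI50. TGI denotes the concentration required for complete inhibition of growth.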
# How the values were obtained:
# Assay in all cases: DTP human tumour cell line panel, 48 h
# [1] = system: UO-31 renal
# [2] = system: A549 NSCLC
# [3] = system: OVCAR-4 ovarian
# [4] = system: MCF7 breast
# [5] = system: HCT-116 colon
# [6] = system: SF-539 CNS
# [7] = system: RPMI-8226 leukemia
# [8] = system: K-562 leukemia
# [9] = system: MOLT-4 leukemia
# [10] = system: HL-60(TB) leukemia
Compound,TGI [1],TGI [2],TGI [3],TGI [4],TGI [5],TGI [6],TGI [7],TGI [8],GI50 [9],TGI [9],GI50 [1],GI50 [2],GI50 [3],GI50 [4],GI50 [5],GI50 [6],GI50 [10],TGI [10],GI50 [7],GI50 [8]
COc1ccc(NCc2c(O)ccc3ccccc23)cc1,> 100 µM,> 100 µM,> 100 µM,> 100 µM,> 100 µM,25.9 µM,63.6 µM,38.3 µM,–,–,–,–,–,–,–,–,–,–,–,–
COc1ccc(Cn2cc3c(c2-c2ccccc2)CCc2cncnc2-3)cc1,24.2 µM,14.1 µM,33.7 µM,18.9 µM,14.9 µM,18.7 µM,8.62 µM,11.3 µM,2.81 µM,11.1 µM,10.3 µM,3.55 µM,10.2 µM,4.66 µM,3.65 µM,6 µM,2.04 µM,5.7 µM,2.69 µM,2.75 µM
CN(C)CCC(=O)NCc1c2nc3ccccc3nc2n2ccccc12,> 100 µM,> 100 µM,–,> 100 µM,59.7 µM,43.2 µM,> 100 µM,> 100 µM,38.8 µM,> 100 µM,20.7 µM,> 100 µM,–,17.4 µM,21 µM,21.9 µM,58.1 µM,> 100 µM,18.5 µM,> 100 µM
Cc1ccc(C(=O)Nc2ccccc2C(=O)N/N=C(\c2ccccc2)c2ccccn2)cc1,2.66 µM,> 100 µM,> 100 µM,> 100 µM,> 100 µM,6.95 µM,> 100 µM,> 100 µM,0.374 µM,> 100 µM,0.107 µM,0.703 µM,0.157 µM,0.359 µM,0.348 µM,0.309 µM,–,–,1.13 µM,0.855 µM
COc1ccc(-c2cc3nccn3c(Nc3ncccc3C(N)=O)n2)cc1OC,42.1 µM,> 100 µM,> 100 µM,> 100 µM,> 47.4 µM,> 100 µM,> 100 µM,> 100 µM,4.14 µM,> 100 µM,0.758 µM,3 µM,> 100 µM,1.87 µM,0.516 µM,5.86 µM,2.13 µM,24.2 µM,2.75 µM,4.59 µM
C=C(CN(CCN1CCOCC1)CC(=C)c1ccc(C(=O)Nc2ccccc2N)cc1)c1ccc(C(=O)Nc2ccccc2N)cc1,11.4 µM,24.9 µM,> 50 µM,> 50 µM,15.3 µM,16.1 µM,> 50 µM,> 50 µM,–,–,5.2 µM,9.38 µM,10.5 µM,11 µM,7.68 µM,5.31 µM,13 µM,> 50 µM,2.68 µM,28.1 µM
CCOC(=O)c1cn2ncnc(Oc3ccc(NC(=O)NCCN(CC)CC)c(Cl)c3)c2c1C,3.19 µM,40.2 µM,45.5 µM,5.21 µM,4.75 µM,3.45 µM,3.92 µM,4.48 µM,2.36 µM,5.67 µM,1.55 µM,15.8 µM,12.2 µM,2.14 µM,2 µM,1.76 µM,1.81 µM,4.07 µM,1.73 µM,2.01 µM
COc1cccc2cc(N(C)c3nc(C)nc4ccsc34)ccc12,12.5 µM,16 µM,19.8 µM,16.3 µM,10.5 µM,< 0.01 µM,6.02 µM,> 48.6 µM,< 0.01 µM,29.7 µM,< 0.01 µM,< 0.01 µM,< 0.0266 µM,< 0.01 µM,< 0.01 µM,< 0.01 µM,< 0.01 µM,< 0.01 µM,< 0.01 µM,< 0.01 µM
CCCCCCCCCCC(CN(CC)CC)C(O)c1ccccc1 (centres undefined),3.1 µM,5.41 µM,3.45 µM,3.15 µM,3.37 µM,3.3 µM,4.88 µM,4.67 µM,2.25 µM,5.8 µM,1.56 µM,2.49 µM,1.63 µM,1.63 µM,1.72 µM,1.72 µM,2.13 µM,5.04 µM,2.05 µM,2.03 µM
O=C(Nn1c2c(sc1=NC1CC1)C(=O)c1ccccc1C2=O)c1cc2ccc1CCc1ccc(cc1)CC2,2.77 µM,6.07 µM,4.58 µM,3.29 µM,6.45 µM,3.06 µM,6.47 µM,> 100 µM,2.22 µM,8.89 µM,0.85 µM,2.42 µM,1.61 µM,1.42 µM,1.94 µM,1.67 µM,2.18 µM,6.26 µM,1.86 µM,2.43 µM
O=C(O)CCc1nc(-c2ccccc2)c(-c2ccccc2)o1,–,> 100 µM,> 100 µM,> 100 µM,> 100 µM,> 100 µM,> 100 µM,> 100 µM,–,> 100 µM,–,–,–,–,–,–,–,> 100 µM,–,–
COc1cc(C(=O)/C=C/c2c(-c3cccs3)nc3ccccn23)cc(OC)c1OC,3.17 µM,5.89 µM,21.6 µM,15.4 µM,3.08 µM,4.5 µM,3.72 µM,–,1.77 µM,4.39 µM,1.07 µM,2.04 µM,3.13 µM,1.12 µM,1.63 µM,1.87 µM,2.01 µM,5.01 µM,1.23 µM,–
CCCCc1oc2ccccc2c1C(=O)c1cc(I)c(OCCN(CC)CC)c(I)c1,13.2 µM and 28.4 µM,15.8 µM and 70.3 µM,16.2 µM and 20.9 µM,3.71 µM and 10.8 µM,3.88 µM and 9.07 µM,10.5 µM,4.91 µM and 9.09 µM,9.87 µM,1.92 µM,4.27 µM and 7.8 µM,2.54 µM and 7.07 µM,3.72 µM,3.47 µM,1.78 µM,1.82 µM,–,1.93 µM,3.88 µM and 7.09 µM,1.92 µM,–
c1ccc([P+](CCC[P+](c2ccccc2)(c2ccccc2)c2ccccc2)(c2ccccc2)c2ccccc2)cc1,> 100 µM,> 100 µM,> 100 µM,> 100 µM,> 100 µM,> 100 µM,> 100 µM and 10.1 µM,> 100 µM,35.9 µM,> 100 µM,–,14.5 µM,5.51 µM,6.79 µM,7.27 µM,15.1 µM,2.27 µM,36.9 µM and 6.75 µM,1.27 µM,4.53 µM
Cc1[nH]ccc2cc3nc4ccccc4c3cc12,8.47 µM,12.2 µM,10.7 µM,5.63 µM,2.38 µM,12.6 µM,3.87 µM,10.4 µM,0.723 µM,3.13 µM,2.02 µM,2.5 µM,2.65 µM,1.34 µM,0.667 µM,3.07 µM,3.48 µM,14.9 µM,1.53 µM,2.8 µM
Oc1oc(-c2ccccc2)nc1/C=C1/C=NN=N1,> 100 µM,> 100 µM,> 100 µM,> 100 µM,> 100 µM,> 100 µM,> 100 µM,> 100 µM,–,> 100 µM,–,–,–,–,–,–,–,> 100 µM,–,–
CCN1CCN(c2cc(C)nc(NCc3cc(Nc4ccnc5cc(Cl)ccc45)ccc3F)n2)CC1,3.89 µM,> 100 µM,> 100 µM,16.9 µM,4.1 µM,3.42 µM,8.72 µM,> 100 µM,2.34 µM,> 100 µM,1.61 µM,5.1 µM,2.08 µM,0.302 µM,1.2 µM,1.72 µM,2.18 µM,22.1 µM,2.13 µM,1.04 µM
Cc1cc(Cl)ccc1Nc1nc(C(F)(F)F)ccc1C(=O)N/N=C/c1ccc(N(C)C)cc1,> 100 µM,> 100 µM,–,> 100 µM,> 100 µM,> 100 µM,> 100 µM,> 100 µM,2.22 µM,> 100 µM,2.97 µM,3.86 µM,–,1.9 µM,0.743 µM,5.87 µM,1.44 µM,> 100 µM,2.94 µM,1.93 µM
O=C1c2c(O)cccc2C(C(=O)CCCC(=O)C2c3cccc(O)c3C(=O)c3c(O)cccc32)c2cccc(O)c21,1.08 µM,1.64 µM,0.82 µM,25 µM,3.79 µM,0.675 µM,0.752 µM,4.86 µM,–,17.5 µM,–,–,–,–,–,–,–,–,–,–
C#CCOc1cccc(Nc2ncnc3c2ncn3C2CCN(C(=O)CCl)C2)c1 (centres undefined),29.6 µM,> 100 µM,45 µM,41.4 µM,59.8 µM,32.4 µM,44.2 µM,> 100 µM,–,–,15.2 µM,> 100 µM,19.4 µM,18.7 µM,22.7 µM,17.7 µM,19.4 µM,41.8 µM,21 µM,25.7 µM
C=C(C)C1CCC2(CO)C(O)CC3(C)C(CCC4C5(C)CCC(O)C(C)(C)C5CCC43C)C12 (centres undefined),26.7 µM,32.6 µM,–,43.6 µM,73.7 µM,30 µM,–,33.3 µM,–,> 100 µM,–,–,–,–,–,–,–,> 100 µM,–,–
c1cc(C2N3CCCN2CC3)ccn1 (centres undefined),> 100 µM,> 100 µM,> 100 µM,> 100 µM,> 100 µM,–,71 µM,> 100 µM,–,> 100 µM,–,–,–,–,–,–,–,> 100 µM,–,–
OCCCCC#Cc1ccccc1C#Cc1cccs1,30.6 µM,31.1 µM,50.1 µM,29.1 µM,31.4 µM,25.9 µM,71 µM,70.6 µM,18.8 µM,40.3 µM,16.9 µM,17.4 µM,20.2 µM,1.88 µM,15.2 µM,12.9 µM,–,–,22 µM,20.3 µM
C=C(C)C(=O)N1c2ccc(OC)cc2CC1C(=O)OCC (centres undefined),> 100 µM,> 100 µM,> 100 µM,> 100 µM,> 100 µM,> 100 µM,–,> 100 µM,–,> 100 µM,–,–,–,–,–,–,–,–,–,–
CC(C)(C)n1cc(-c2ccnc(NCCCNS(=O)(=O)c3ccc(Cl)cc3)c2)c(-c2cccc(O)c2)n1,5.02 µM,4.97 µM,4.64 µM,3.91 µM,3.22 µM,3.14 µM,–,–,1.91 µM,5.64 µM,1.89 µM,1.97 µM,1.94 µM,1.84 µM,1.67 µM,1.65 µM,2.51 µM,6.37 µM,–,–
CCOC(CN(C)C(=O)OCC(Cl)(Cl)Cl)OCC,> 100 µM,> 100 µM,> 100 µM,> 100 µM,> 100 µM,> 100 µM,–,> 100 µM,–,> 100 µM,–,–,–,–,–,–,–,59.1 µM,–,–
CO[C@@]12[C@H](COC(N)=O)C3=C(C(=O)C(C)=C(N)C3=O)N1C[C@@H]1N[C@@H]12,6.88 µM and 0.959 µM,8.52 µM and 25 µM and 2.78 µM,10.5 µM and 10.1 µM and 42.8 µM,8.6 µM and 15.1 µM and 47 µM,6.06 µM and 4.21 µM and 8.46 µM,–,19.2 µM and 14.2 µM and 15.5 µM,19.6 µM and 15.6 µM and > 100 µM,0.271 µM,–,–,–,4.65 µM,0.215 µM and 0.0824 µM,1.26 µM and 1.15 µM,–,0.126 µM,–,2.03 µM and 1.88 µM,1.52 µM
ClC1=C(Cl)C(Cl)=C(Cl)C1=Cc1ccc(Cl)cc1Cl,–,4.52 µM,5.89 µM,> 100 µM,0.494 µM,1.4 µM,1.99 µM,2 µM,0.3 µM,0.98 µM,–,1.7 µM,0.53 µM,0.319 µM,0.206 µM,0.353 µM,0.403 µM,3.1 µM,0.355 µM,0.341 µM
CO[C@H]1/C=C/C[C@H](C)[C@@H](C)S(=O)(=O)NC(=O)c2ccc3c(c2)N(C[C@@H]2CC[C@H]21)C[C@@]1(CCCc2cc(Cl)ccc21)CO3,11.1 µM,12.7 µM,12.1 µM,9.77 µM,8.35 µM,4.55 µM,0.534 µM,–,1.73 µM,8.8 µM,3.19 µM,3.29 µM,2.46 µM,1.43 µM,2.75 µM,1.85 µM,0.246 µM,0.655 µM,0.132 µM,–
